Columns and labels:
[1] = test system: denatured collagen type-IV; test: 99Tc-CLK-Peptide competitive binding to denatured collagen type-IV (gamma counter); conditions: collagen 10 μg/ml; 99Tc-CLK-peptide 10 μg/ml
Procedure: FIG. 18 Inhibition of 99Tc-CLK-Peptide binding by unlabeled HUI77.
FIG. 19 Inhibition of Binding of Labeled CLK-Peptide to Denatured Collagen Type-IV by mAb HUI77. Denatured collagen type-IV (10 μg/ml) was coated on microtiter wells and binding of 99Tc-labeled CLK-Peptide in the presence or absence of unlabeled CLK-peptide or mAb HUI77 was measured. As shown in the figure, 99Tc-CLK-peptide (10 μg/ml, 50 μl/well) specifically binds to denatured collagen type-IV (first bar from left). […] 99Tc-CLK-peptide was also allowed to bind to denatured collagen type-IV in the presence or absence of Mab HUI77 (fourth and fifth bars from left). […] These findings provide further evidence that the CLK-peptide binds to a similar if not identical epitope recognized by Mab HUI77.
^99Tc-CLK-Peptide was used in competitive binding studies to further characterize the CLK epitope. To evaluate the ability of HUI77 to compete with binding to denatured type-IV collagen, type-IV collagen was denatured at 60° C. for 15 minutes at a concentration of […] in PBS. […] The supernatant, washes and collagen-coated wells were counted in a gamma counter (1 minute counts in duplicate).
In addition, denatured collagen type-IV (10 μg/ml) was coated on microtiter wells and binding of ^99Tc-labeled CLK-Peptide in the presence or absence of either unlabeled CLK-peptide or mAb HUI77 was measured using a gamma counter. […]

GL261 tumor cells = test: GL261 cell migration on denatured collagen type-IV (transwell); assay type: cell-based, murine; conditions: 50 μg/ml; 6 hours; versus controls
Procedure: FIG. 22 Effects of CLK-Peptide on Tumor Cell Migration. In cell migration assays, CLK-peptide (50 μg/ml) inhibited GL261 cell migration on denatured collagen type-IV by approximately 50% as compared to control.
The effects of CLK-peptide on invasive tumor cell migration and proliferation in vitro were examined. Membranes from transwell chambers and microtiter wells (in proliferation assays) were coated with denatured collagen type-IV (10 μg/ml). GL261 cells were resuspended in either migration buffer or proliferation buffer in the presence or absence of CLK-peptide or control (50 μg/ml). In the cell migration experiments, GL261 tumor cells were allowed to migrate for 6 hours. Tumor cells that had migrated to the underside of the coated membranes were quantified by staining with crystal violet, and the optical densities of cell-associated dye were measured with a microplate reader at a wavelength of 600 nm.

P27KIP1 = P27KIP1 expression by Western blot in tumor cells on denatured collagen; assay type: cell-based, murine; conditions: 24 hours
Procedure: FIG. 11 Inhibition of Cellular Interactions by CLK-Peptide Enhances Expression of P27KIP1. […] A. Treatment of B16F10 melanoma cells. B. Treatment of GL261 glioblastoma cells.
To determine whether the effect on inhibition of tumor proliferation and invasion in vivo differs in malignant tumors and normal tissue, the effect of CLK-peptide on gene expression was analyzed. Genes that regulate cell cycle control, including Cyclin Dependent Kinase (CDK) inhibitors known to regulate cellular proliferation, were studied. Tumor cells (B16F10 melanoma and GL261 glioblastoma) were resuspended in adhesion buffer in the presence or absence of CLK-peptide or control. Cells were added to culture plates coated with denatured collagen and allowed to incubate for 24 hours. Total cell lysates were prepared and the relative levels of the CDK inhibitor P27^KIP1 was examined by Western Blot analysis.

[2] = test system: intact triple helical collagen type-IV; test: Solid phase ELISA, labeled CLK-peptide binding to native collagen type-IV
Procedure: FIG. 15 CLK-Peptide Reacts with a Cryptic Epitope in Collagen Type-IV In Vitro. Reactivity of biotin-labeled CLK-Peptide was assessed by solid phase ELISA. Reactivity was monitored by incubation with HRP-labeled streptavidin. […] All data was corrected for nonspecific binding of HRP-labeled streptavidin only. Data bars represent the mean optical density (O.D.)±standard deviation from triplicate wells. Assays were repeated 2 to 3 times with similar results.
The CLK-peptide was labeled with HRP and used in solid phase ELISA to assess differential binding to either native or denatured collagen type-IV. Microtiter plates were coated with either native or denatured collagen type-IV and HRP-labeled CLK-peptide was allowed to bind. […] In contrast, CLK-Peptide readily bound to denatured collagen type-IV. […] To determine whether this cryptic epitope was also exposed within the ECM in vivo, biotin-labeled CLK-peptide was used to stain M21 human melanoma tumors growing in nude mice (results shown in FIGS. 16A and B and described in Example 15).

[3] = test system: GL261 glioblastoma tumors; test: GL261 tumors grown on chick CAMs, CLK-peptide combined with ionizing radiation; assay type: in vivo; conditions: CLK-peptide 50 μg/embryo + 5.0 Gy; 7-day incubation
Procedure: FIG. 25 Effects of CLK-Peptide on Anti-Tumor Activity of Ionizing Radiation In Vivo. Glioblastoma tumors grown on CAMs were treated with either CLK-Peptide, ionizing radiation, both, or left untreated as a control. Their relative sizes after incubation are shown. FIG. 26 Quantitation of the Effects of CLK-Peptide on Anti-tumor Activity of Ionizing Radiation in vivo. Glioblastoma tumors grown on CAMs were treated with either CLK-Peptide, ionizing radiation, both, or left untreated as a control. Their relative wet weights following treatment are graphed. The effects of CLK-peptide in combination with ionizing radiation on tumor growth in vivo were assessed. GL261 glioblastoma cells were seeded on the CAMs of 10-day old chick embryos. Twenty-four hours later, the embryos were injected systemically with CLK-peptide (50 μg/embryo). Twenty-four hours after CLK-peptide treatment the embryos were either untreated or irradiated with a single fraction dose of ionizing radiation (5.0 Gy). Photographs showing the relative sizes of […] given each treatment individually, the combination treatment, and not treated, are shown in FIG. 25. At the end of the 7-day incubation period the tumors (N=6 to 8 per condition) were removed and wet weights determined.

- inhibition of 99Tc-CLK-peptide binding to denatured collagen type-IV [1]: dose-dependent inhibition
- binding to intact triple helical collagen type-IV [2]: little if any binding
Substance: H-CLKQNGGNFSLG-OH [CLK-peptide, NH2-C-L-K-Q-N-G-G-N-F-S-L-G-COOH]
- inhibition of GL261 cell migration on denatured collagen type-IV (GL261 tumor cells): approximately 50%
- P27KIP1 level (P27KIP1; B16F10 melanoma cells on denatured collagen): dramatic upregulation
- P27KIP1 level (P27KIP1; GL261 glioblastoma cells on denatured collagen): dramatic upregulation
- inhibition of tumor growth (wet weights), combination therapy versus either treatment alone [3]: greater
